According to patent US20240228535A1 (priority 2022, published 2024):

Molecular target: SARS2 coronavirus 3CL protease (Severe acute respiratory syndrome coronavirus 2, UniProt P0DTD1)
Assay: biochemical
Conditions: 5 nM enzyme, 30 min pre-incubation with compound, 15 μM peptide substrate, 4 h at room temperature; read-out: FRET Potency (nM); IC50 values in the SARS2 3CLPro FRET assay

SMILES	IC50
CNC(=O)C(=O)[C@H](C[C@@H]1C[C@@H](C)NC1=O)NC(=O)c1cc(Cl)cc(F)c1NC(=O)OC [Example 133, methyl N-[4-chloro-2-fluoro-6-[[(1S)-3-(methylamino)-1-[[(3S,5R)-5-methyl-2-oxo-pyrrolidin-3-yl]methyl]-2,3-dioxo-propyl]carbamoyl]phenyl] carbamate]	9.9 nM
CNC(=O)C(=O)[C@H](C[C@@H]1C[C@@H](C)NC1=O)NC(=O)c1cc(Cl)ccc1NC(=O)OCC1CC1 [Example 152, cyclopropylmethyl N-[4-chloro-2-[[(1S)-3-(methylamino)-1-[[(3S,5R)-5-methyl-2-oxo-pyrrolidin-3-yl]methyl]-2,3-dioxo-propyl]carbamoyl]phenyl] carbamate]	5 nM
C[C@@H]1C[C@@H](C[C@H](NC(=O)c2cc(Cl)ccc2NC(=O)C(F)(F)F)C(=O)C(=O)NC2CC2)C(=O)N1 [Example 177, 5-chloro-N-[(1S)-3-(cyclopropylamino)-1-[[(3S,5R)-5-methyl-2-oxo-pyrrolidin-3-yl]methyl]-2,3-dioxo-propyl]-2-[(2,2,2-trifluoroacetyl)amino] benzamide]	10.9 nM
CNC(=O)C(=O)[C@H](C[C@@H]1C[C@@H](C)NC1=O)NC(=O)c1cc(F)ccc1NC(=O)c1ccnc(C(F)(F)F)c1 [Example 207, N-[4-fluoro-2-[[(1S)-3-(methylamino)-1-[[(3S,5R)-5-methyl-2-oxo-pyrrolidin-3-yl]methyl]-2,3-dioxo-propyl]carbamoyl]phenyl]-2-(trifluoromethyl)pyridine-4-carboxamide]	11.4 nM
CNC(=O)C(=O)[C@H](C[C@@H]1C[C@@H](C)NC1=O)NC(=O)c1cc(F)cnc1NC(=O)c1cccc(C(F)(F)F)c1 [Example 28, 5-fluoro-N-[(1S)-3-(methylamino)-1-[[(3S,5R)-5-methyl-2-oxo-pyrrolidin-3-yl]methyl]-2,3-dioxo-propyl]-2-[[3-(trifluoromethyl)benzoyl]amino]pyridine-3-carboxamide]	13.2 nM
CNC(=O)C(=O)[C@H](C[C@@H]1C[C@@H](C)NC1=O)NC(=O)c1cc(Cl)c(F)cc1NC(=O)c1ccc(C(F)(F)F)nc1 [Example 223, N-[4-chloro-5-fluoro-2-[[(1S)-3-(methylamino)-1-[[(3S,5R)-5-methyl-2-oxo-pyrrolidin-3-yl]methyl]-2,3-dioxo-propyl]carbamoyl]phenyl]-6-(trifluoromethyl)pyridine-3-carboxamide]	9 nM
CCOC(=O)Nc1ccc(Cl)cc1C(=O)N[C@@H](C[C@@H]1CCNC1=O)C(=O)C(=O)NC [Example 111, ethyl N-[4-chloro-2-[[(1S)-3-(methylamino)-2,3-dioxo-1-[[(3S)-2-oxopyrrolidin-3-yl]methyl]propyl]carbamoyl]phenyl]carbamate]	5.8 nM
C[C@@H]1C[C@@H](C[C@H](NC(=O)c2cc(Cl)ccc2NC(=O)C23CC(C(F)(F)F)(C2)C3)C(=O)C(=O)NC2CC2)C(=O)N1 [Example 69, N-[4-chloro-2-[[(1S)-3-(cyclopropylamino)-1-[[(3S,5R)-5-methyl-2-oxo-pyrrolidin-3-yl]methyl]-2,3-dioxo-propyl]carbamoyl]phenyl]-3-(trifluoromethyl)bicyclo[1.1.1] pentane-1-carboxamide]	6.9 nM
CC(C)OC(=O)Nc1ccc(Cl)cc1C(=O)N[C@@H](C[C@@H]1C[C@@H](C)NC1=O)C(=O)C(=O)NC1CC1 [Example 6, isopropyl (4-chloro-2-(((S)-4-(cyclopropylamino)-1-((3S,5R)-5-methyl-2-oxopyrrolidin-3-yl)-3,4-dioxobutan-2-yl)carbamoyl)phenyl)carbamate]	4.8 nM
O=C(NC1CC1)C(=O)[C@H](C[C@@H]1CCNC1=O)NC(=O)c1cc(Cl)ccc1NC(=O)C1(CC(F)(F)F)CC1 [Example 36, 5-chloro-N-[(1S)-3-(cyclopropylamino)-2,3-dioxo-1-[[(3S)-2-oxopyrrolidin-3-yl]methyl]propyl]-2-[[1-(2,2,2-trifluoroethyl)cyclopropane-carbonyl]amino]benzamide]	10.7 nM
CNC(=O)C(=O)[C@H](C[C@@H]1C[C@@H](C)NC1=O)NC(=O)c1cc(Cl)ccc1NC(=O)c1cccc(C(F)(F)F)c1 [Example 45, 5-chloro-N-[(1S)-3-(methylamino)-1-[[(3S,5R)-5-methyl-2-oxo-pyrrolidin-3-yl]methyl]-2,3-dioxo-propyl]-2-[[3-(trifluoromethyl)benzoyl]amino]benzamide]	9.4 nM
C[C@@H]1C[C@@H](C[C@H](NC(=O)c2cc(Cl)ccc2NC(=O)c2cccc(C(F)(F)F)c2)C(=O)C(N)=O)C(=O)N1 [Example 48, N-[(1S)-3-amino-1-[[(3S,5R)-5-methyl-2-oxo-pyrrolidin-3-yl]methyl]-2,3-dioxo-propyl]-5-chloro-2-[[3-(trifluoromethyl)benzoyl]amino]benzamide]	8.8 nM
CNC(=O)C(=O)[C@H](C[C@@H]1CCNC1=O)NC(=O)c1cc(Cl)ccc1NC(=O)OC1CC1(F)F (stereo partly shown) [Example 156]	14.6 nM
C[C@@H]1C[C@@H](C[C@H](NC(=O)c2cc(Cl)ccc2NC(=O)c2cccc(C(F)(F)F)c2)C(=O)C(=O)NC2CC2)C(=O)N1 [Example 66, 5-chloro-N-[(1S)-3-(cyclopropylamino)-1-[[(3S,5R)-5-methyl-2-oxo-pyrrolidin-3-yl]methyl]-2,3-dioxo-propyl]-2-[[3-(trifluoromethyl)benzoyl]amino]benzamide]	7 nM
COC(=O)Nc1ccc(Cl)cc1C(=O)N[C@@H](C[C@@H]1C[C@@H](C)NC1=O)C(=O)C(=O)NC1CC1 [Example 101, methyl N-[4-chloro-2-[(1S)-3-(cyclopropylamino)-1-[[(3S,5R)-5-methyl-2-oxo-pyrrolidin-3-yl]methyl]-2,3-dioxo-propyl]carbamoyl]phenyl] carbamate]	7.8 nM
CNC(=O)C(=O)[C@H](C[C@@H]1CCNC1=O)NC(=O)c1cc(Cl)ccc1NC(=O)CCC(F)(F)F [Example 159, 5-chloro-N-[(1S)-3-(methylamino)-2,3-dioxo-1-[[(3S)-2-oxopyrrolidin-3-yl]methyl]propyl]-2-(4,4,4-trifluorobutanoylamino) benzamide]	7.9 nM
